Experimental data reported in PMC3170264 (Retrovirology, 2011).
Where a chain is given by its changes, count along the chain named.

Assays:
[1] = system: HIV-2 IN E92A/T97A/N155H (T1); experiment: strand transfer inhibition, IN from clinical isolate T1; type: biochemical; conditions: clinical isolate T1, N155H with substitutions at positions 92 and 97, 200 nM IN
Description: Activity is expressed as a % of control without drug. Experiments were performed two times.
(§1) The HIV-2 ODN substrate sequences were: UA: 5'-[…]-3'; U5B: 5'-[…]-3'; U5B-2: 5'-[…] […]-3'.

HIV-2 N2 IN = molecular target: T1, HIV-2 N2 IN (Human immunodeficiency virus type 2 subtype B, UniProt Q89928, I1301V/I1428V/M1455R/N1185G/N1438H/R1202K/R1392Q/T1348A/T1383N/V1343I/V1460M); experiment: strand transfer inhibition, IN from clinical isolate N2; type: biochemical; conditions: IN from RAL-naive patient N2; 200 nM IN; 37°C; Mg2+
T1 construct: His-tag (pET-15b) (N); made in house; host or cells: Escherichia coli BL21-CodonPlus (DE3)-RIPL
T1 sequence (Q89928 1169-1464 N1185G/R1202K/I1301V/V1343I/T1348A/T1383N/R1392Q/I1428V/N1438H/M1455R/V1460M limits assumed): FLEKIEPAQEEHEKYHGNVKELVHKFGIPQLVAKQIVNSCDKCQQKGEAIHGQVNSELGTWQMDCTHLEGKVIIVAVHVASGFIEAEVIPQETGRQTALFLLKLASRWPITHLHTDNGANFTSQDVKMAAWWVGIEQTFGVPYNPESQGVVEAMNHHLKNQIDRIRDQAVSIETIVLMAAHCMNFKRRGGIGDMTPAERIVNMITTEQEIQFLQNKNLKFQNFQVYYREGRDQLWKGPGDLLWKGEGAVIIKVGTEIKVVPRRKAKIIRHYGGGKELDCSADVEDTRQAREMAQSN
Description: The ST reaction was performed using a ^32P-labeled oligonucleotide mimicking the preprocessed substrate. Drug concentrations are indicated above each lane. […] Activity is expressed as a % of control without drug. Experiments were repeated two times.
as §1

HIV-2 IN (N1 to N3) = molecular target: T2, HIV-2 IN (N1 to N3) (Human immunodeficiency virus type 2 subtype B, UniProt Q89928, I1218V/I1301V/I1372V/M1455R/N1185G/N1438H/R1202K/R1392Q/T1348V/T1383A/V1460M); experiment: 3'-processing inhibition, INs from clinical isolates N1 to N3; type: biochemical; conditions: at concentrations up to 1 μM; data not shown
T2 construct: His-tag (pET-15b) (N); made in house; host or cells: Escherichia coli BL21-CodonPlus (DE3)-RIPL
T2 sequence (Q89928 1169-1464 N1185G/R1202K/I1218V/I1301V/T1348V/I1372V/T1383A/R1392Q/N1438H/M1455R/V1460M limits assumed): T1 sequence (Q89928 1169-1464 N1185G/R1202K/I1301V/V1343I/T1348A/T1383N/R1392Q/I1428V/N1438H/M1455R/V1460M limits assumed) with I50V, I175V, A180V, I204V, N215A, V260I
Description: (§2) The activity of wild-type and mutated INs was determined in vitro, as previously described. Briefly, oligonucleotides (ODN) mimicking the end of the U5 long terminal repeat of the viral genome were radiolabeled with T4 polynucleotide kinase (Biolabs, Ipswich, USA) and [γ-^32P] ATP (3,000 Ci/mmol) (Amersham, GE Healthcare, USA), then purified on a Sephadex G-10 column (GE Healthcare, USA). Double-stranded ODNs were obtained by mixing equimolar amounts of complementary strands in the presence of 100 mM NaCl.

HIV-2 IN Y143C = HIV-2 IN Y143C (Human immunodeficiency virus type 2 subtype B, UniProt Q89928, I1218V/I1301V/I1372V/M1455R/N1185G/N1438H/R1202K/R1392Q/T1348V/T1383A/V1460M/Y1311C); conditions: Y143C in N1 background; 200 nM IN
Description: (§3) Mutations were introduced in the HIV-2 N1 background by mutagenesis. […] Activity is expressed as a % of control without drug. Experiments were performed two times.
(§4) The IN coding sequences from the viruses isolated from the plasma of HIV-2-infected patients N1 to N3 and T1 to T7 were amplified by PCR and sequenced according to a previously described procedure. PCR products corresponding to the entire IN sequence were amplified again with the following specific primers containing NdeI and BamH I restriction sites at their 5' ends. Primer 1: N1, N2, T1, T2, 5'-[…]-3'; N3, 5'-[…]-3'; T3-T7, 5'-[…]-3'. Primers 2: N1, 5'-[…]-3'; N2, 5'-[…]-3'; N3, 5'-[…] The amplicons were then ligated into the TA cloning plasmid pGEM-T easy (Promega, Madison, USA). Single (E92Q, T97A, G140S, Q148R, Y143C, N155H) and double (G140S/Q148R, Y143C/N155H, E92Q/Y143C and T97A/Y143C) mutations were introduced into the HIV-2 wild-type N1 sequence by mutagenesis using the QuickChange II site-directed mutagenesis kit (Agilent Technologies, Santa Clara, USA) according to the manufacturer instructions. NdeI - BamH fragments covering the IN coding sequence were then inserted into the expression vector pET-15b.
as §2

HIV-2 IN T97A/Y143C = HIV-2 IN T97A/Y143C (Human immunodeficiency virus type 2 subtype B, UniProt Q89928, I1218V/I1301V/I1372V/M1455R/N1185G/N1438H/R1202K/R1392Q/T1265A/T1348V/T1383A/V1460M/Y1311C); conditions: T97A/Y143C in N1 background; 200 nM IN
Description: as §3, §4, §2

HIV-2 IN N155H = HIV-2 IN N155H (Human immunodeficiency virus type 2 subtype B, UniProt Q89928, I1218V/I1301V/I1372V/M1455R/N1185G/N1323H/N1438H/R1202K/R1392Q/T1348V/T1383A/V1460M); conditions: N155H in N1 background; 200 nM IN
Description: as §3, §4, §2

HIV-2 IN G140S/Q148R = HIV-2 IN G140S/Q148R (Human immunodeficiency virus type 2 subtype B, UniProt Q89928, G1308S/I1218V/I1301V/I1372V/M1455R/N1185G/N1438H/Q1316R/R1202K/R1392Q/T1348V/T1383A/V1460M); conditions: G140S/Q148R in N1 background; 200 nM IN
Description: as §3, §4, §2

HIV-2 IN E92Q = HIV-2 IN E92Q (Human immunodeficiency virus type 2 subtype B, UniProt Q89928, E1260Q/I1218V/I1301V/I1372V/M1455R/N1185G/N1438H/R1202K/R1392Q/T1348V/T1383A/V1460M); conditions: E92Q in N1 background; 200 nM IN
Description: as §3, §4, §2

wild-type HIV-2 = conditions: phenotypic susceptibility similar to that of HIV-1; cited from earlier work

Compound: Cc1nnc(C(=O)NC(C)(C)c2nc(C(=O)NCc3ccc(F)cc3)c(O)c(=O)n2C)o1 [RAL, raltegravir]
- factor of increase of IC50 versus wild-type N1 IN [1]: about 50
- IC50 (HIV-2 N2 IN): 30 nM
- effect on 3' processing in vitro (HIV-2 IN (N1 to N3)): no significant effect
- resistance to RAL, strand transfer (HIV-2 IN Y143C): did not lead to significant resistance
- resistance to RAL, strand transfer (HIV-2 IN T97A/Y143C): did not lead to detectable IN resistance
- resistance to RAL, strand transfer (HIV-2 IN N155H): high level of resistance
- resistance to RAL, strand transfer (HIV-2 IN G140S/Q148R): highly resistant
- resistance to RAL, strand transfer (HIV-2 IN E92Q): did not confer significant resistance
- activity against wild-type HIV-2 (wild-type HIV-2): active
